Literature values in patent US11826321B2, “Cyclobenzaprine treatment for agitation, psychosis and cognitive decline in dementia and neurodegenerative conditions” (TONIX PHARMA HOLDINGS LIMITED, priority 2017, dated 2023).

Assays:
[1] = PubMed, NIH Drug Reaction Navigator, Medscape Drug Interaction Checker, Drugs.com
[2] = IR 5 to 10 mg TID and ER 15 mg BID/QD to 30 mg QD; scale to 3
[3] = molecular target: alpha-adrenergic-1A (α1A) receptor (Homo sapiens, UniProt P35348)
[4] = IR 5 mg TID, 10 doses over 4 days, healthy elderly 62 to 80 years
[5] = molecular target: serotonergic-2A (5-HT2A) receptor (Homo sapiens, UniProt P28223)
Sequence of serotonergic-2A (5-HT2A) receptor (P28223 whole entry, species assumed): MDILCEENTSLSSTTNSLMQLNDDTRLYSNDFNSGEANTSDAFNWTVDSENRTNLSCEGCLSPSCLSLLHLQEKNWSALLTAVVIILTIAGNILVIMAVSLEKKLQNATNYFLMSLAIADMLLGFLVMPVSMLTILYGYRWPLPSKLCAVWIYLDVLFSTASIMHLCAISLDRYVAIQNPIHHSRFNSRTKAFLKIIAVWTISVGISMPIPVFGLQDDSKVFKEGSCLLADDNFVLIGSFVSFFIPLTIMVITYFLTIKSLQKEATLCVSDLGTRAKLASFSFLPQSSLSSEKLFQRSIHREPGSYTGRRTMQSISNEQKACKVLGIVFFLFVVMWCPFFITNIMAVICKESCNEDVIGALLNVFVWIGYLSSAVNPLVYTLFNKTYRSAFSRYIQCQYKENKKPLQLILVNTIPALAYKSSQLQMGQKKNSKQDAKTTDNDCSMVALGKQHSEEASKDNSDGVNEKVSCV

Sequence of alpha-adrenergic-1A (α1A) receptor (P35348 whole entry): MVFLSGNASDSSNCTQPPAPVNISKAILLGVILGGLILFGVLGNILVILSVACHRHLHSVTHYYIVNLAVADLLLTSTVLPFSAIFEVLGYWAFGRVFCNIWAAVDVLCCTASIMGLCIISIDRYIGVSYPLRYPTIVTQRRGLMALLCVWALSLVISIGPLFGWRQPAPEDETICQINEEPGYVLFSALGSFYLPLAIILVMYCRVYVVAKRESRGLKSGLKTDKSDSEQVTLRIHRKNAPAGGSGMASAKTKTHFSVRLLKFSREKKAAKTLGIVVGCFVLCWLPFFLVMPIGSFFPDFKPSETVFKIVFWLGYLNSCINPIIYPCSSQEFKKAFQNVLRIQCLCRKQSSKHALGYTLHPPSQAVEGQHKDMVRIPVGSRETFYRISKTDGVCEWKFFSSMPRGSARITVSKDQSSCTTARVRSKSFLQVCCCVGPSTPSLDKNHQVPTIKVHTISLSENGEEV

In the case of `CN(C)CCC=C1c2ccccc2C=Cc2ccccc21` [Cyclobenzaprine, 3-(5H-dibenzola[a,d]cyclohepten-5-ylidene)-N,N-dimethyl-1 propanamine], the “reports of drug-drug interactions with donepezil, rivastigmine, galantamine, memantine” value [1] is given as “did not identify any reports of interactions”, the “anticholinergic burden scale score” value [2] is given as 2 and the α1A antagonist potency [3] is given as “potent”. For the same compound, the “hallucinations reported among patients who took 5 mg TID” value (5 mg TID) was “none were reported”, the incidence of hallucinations (cyclobenzaprine 10 mg, mostly elderly patients) was 0.2% and the “drowsiness and cognitive test performance” value [4] was “does not appear to cause excessive drowsiness or impair performance on cognitive tasks”. The 5-HT2A antagonist potency [5] was “potent”.
